Measurements published in US9079973B2, “Natriuretic polypeptides for reducing restenosis” (Mayo Foundation for Medical Education and Research, priority 2008, dated 2015).

Key:
[1] = cited from earlier work
[2] = tested on: human aortic vascular smooth muscle cells (HAoSMC); test: HAoSMC proliferation (BrdU uptake); type: cell-based; details: serum-supplemented media (5%), 24 hours

For GLSKGCFGLKLDRIGSMSGLGC [CNP], the “half-life after administration to a mammal” value [1] is given as “about a minute and a half”, the reduced proliferation ([2]; 10^−5 M NP) is given as “about 30%” and the reduced proliferation ([2]; 10^−6 M NP) is given as “about 20%”. For the same sequence, the reduced proliferation ([2]; 10^−7 M NP) was “about 20%”.
